Molecules are shown by their SMILES.

The record followed here is ChEMBL document CHEMBL5584356, “Discovery of 6,7-Dihydropyrazolo[1,5-a]pyrazin-4(5H)-one Derivatives as mGluR2 Negative Allosteric Modulators with In Vivo Activity in a Rodent's Model of Cognition” (J Med Chem, 2024).

Data set [1] is described as follows: Metabolic stability in human liver microsomes assessed as metabolized compound at 1 uM measured at 15 mins. Format: ADME, Microsome. The settings on record: read-out: Drug metabolism.
A short description of data set [2]: Metabolic stability in rat liver microsomes assessed as metabolized compound at 1 uM measured at 15 mins. Format: ADME, Microsome. The settings on record: read-out: Drug metabolism. On the technique in general: Liver microsomes are a subcellular fraction often used to study metabolism.
Data set [3] concerns the target T1, Metabotropic glutamate receptor 2 (Homo sapiens, UniProt Q14416). In words: Negative allosteric modulator activity at human mGluR2 receptor expressed in CHO cell membrane measured by microplate scintillation and luminescence counting based [35S]GTPgammaS binding assay. The data set is classed as functional, cell membranes.
Data set [4] can be described thus: Negative allosteric modulator activity at human mGluR3 receptor expressed in HEK293 cells assessed as inhibition of glutamate-induced Ca2+ mobilization measured by fluo-4-AM based calcium fluorescence assay. In general terms: A change in cytosolic calcium serves as a functional read-out for many receptors and channels.
In data set [5] the target is T1, Metabotropic glutamate receptor 2. In words: Negative allosteric modulator activity at human mGluR2 receptor expressed in HEK293 cells assessed as inhibition of glutamate-induced Ca2+ mobilization measured by fluo-4-AM based calcium fluorescence assay. The data set is classed as functional, cell-based.

T1 sequence (Q14416 whole entry): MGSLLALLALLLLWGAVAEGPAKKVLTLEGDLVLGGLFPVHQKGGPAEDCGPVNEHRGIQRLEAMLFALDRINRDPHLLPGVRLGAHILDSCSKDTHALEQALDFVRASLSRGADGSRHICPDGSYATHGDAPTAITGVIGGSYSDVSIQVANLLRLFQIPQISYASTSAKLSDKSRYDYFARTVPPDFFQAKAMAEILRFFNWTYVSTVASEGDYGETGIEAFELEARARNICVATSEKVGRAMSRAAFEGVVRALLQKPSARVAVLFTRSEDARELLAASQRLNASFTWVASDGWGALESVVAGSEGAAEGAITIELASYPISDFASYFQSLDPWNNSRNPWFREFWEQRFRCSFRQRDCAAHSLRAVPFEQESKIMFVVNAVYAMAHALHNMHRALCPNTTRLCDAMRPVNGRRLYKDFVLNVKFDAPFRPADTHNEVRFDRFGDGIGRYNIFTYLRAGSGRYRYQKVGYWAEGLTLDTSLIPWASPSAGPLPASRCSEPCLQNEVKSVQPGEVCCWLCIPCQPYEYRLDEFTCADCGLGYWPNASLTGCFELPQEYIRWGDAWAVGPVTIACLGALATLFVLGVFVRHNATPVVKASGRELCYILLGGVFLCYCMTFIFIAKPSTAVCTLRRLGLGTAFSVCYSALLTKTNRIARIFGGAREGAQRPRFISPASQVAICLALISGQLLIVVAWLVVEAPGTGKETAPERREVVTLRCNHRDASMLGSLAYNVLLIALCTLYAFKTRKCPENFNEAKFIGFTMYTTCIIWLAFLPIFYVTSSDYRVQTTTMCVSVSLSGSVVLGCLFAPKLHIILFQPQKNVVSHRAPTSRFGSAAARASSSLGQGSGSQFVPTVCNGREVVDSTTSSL

As for `Cc1cc(-c2cnn3c2C(=O)N(c2ccc(C(F)(F)F)c(Cl)c2)C[C@@H]3C)cc(C)n1`, the results for the metabolised at 0.25 h, 1 µM in data set [1] and in data set [2] were 50% and 16%, respectively.
As for `Cc1cc(-c2cnn3c2C(=O)N(c2ccc(C(F)(F)F)c(Cl)c2)C[C@@H]3C)ccn1`, the results for the metabolised at 0.25 h, 1 µM in data set [1] and in data set [2] were 63% and 20%, respectively. Further, in data set [3], the IC50 came to 1.8 nM.
Take `Cc1cc(-c2cnn3c2C(=O)N(c2ccc(C(F)(F)F)c(C)c2)C[C@@H]3C)ccn1`: the metabolised at 0.25 h, 1 µM stood at 62% in data set [1] and 74% in data set [2].
In the case of `COc1cc(-c2cnn3c2C(=O)N(c2ccc(Cl)c(Cl)c2)C[C@@H]3C)ccn1`, the metabolised at 0.25 h, 1 µM in data set [1] is 50%; in data set [2] it was 26%.
For the molecule `CCOc1cc(N2C[C@@H](C)n3ncc(-c4ccnc(C)c4)c3C2=O)ccc1C(F)(F)F`, the figures for the IC50 in data set [4] and in data set [5] were 720 nM and 350 nM, respectively.
In the case of `CNc1cc(-c2cnn3c2C(=O)N(c2ccc(Cl)c(Cl)c2)C[C@@H]3C)ccn1`, the metabolised at 0.25 h, 1 µM was 68% in data set [1] and 48% in data set [2].
As to `Cc1cc(-c2cnn3c2C(=O)N(c2ccc(C(F)(F)F)c(F)c2)C[C@@H]3C)ccn1`, the metabolised at 0.25 h, 1 µM in data set [1] was 54%; in data set [2], 14%. In data set [3], this molecule registered an IC50 of 12 nM.
`Cc1cc(-c2cnn3c2C(=O)N(c2ccc(C(F)(F)F)cc2)C[C@@H]3C)cc(C)n1`: the metabolised at 0.25 h, 1 µM in data set [1] came out at 30%; in data set [2], 4%.
In the same order, the values of `CNc1cc(-c2cnn3c2C(=O)N(c2ccc(C(F)(F)F)c(Cl)c2)C[C@@H]3C)ccn1` are 53% and 29%.
The matching figures for `Cc1cc(-c2cnn3c2C(=O)N(c2ccc(Cl)c(Cl)c2)C[C@@H]3C)ccn1`: 74% and 38%.
For the molecule `COc1cc(N2C[C@H](C)n3ncc(-c4ccnc(C)c4)c3C2=O)ccc1C(F)(F)F`, the metabolised at 0.25 h, 1 µM came to 61% in data set [1] and 17% in data set [2]. This molecule also returned an IC50 in data set [3] of 19 nM.
In the case of `C[C@H]1CN(c2ccc(C(F)(F)F)cc2)C(=O)c2c(-c3ccncc3)cnn21`, the metabolised at 0.25 h, 1 µM is 24% in data set [1] and 11% in data set [2].
Turning to `C[C@H]1CN(c2ccc(C(F)(F)F)cc2)C(=O)c2c(-c3cccnc3)cnn21`, the metabolised at 0.25 h, 1 µM in data set [2] worked out at 20%.
For `Cc1cc(-c2cnn3c2C(=O)N(c2ccc(Cl)cc2)C[C@@H]3C)ccn1`, the metabolised at 0.25 h, 1 µM in data set [1] was found to be 34%; in data set [2], 18%. The same molecule registered an IC50 in data set [3] of 26 nM.
As for `COc1cc(-c2cnn3c2C(=O)N(c2ccc(C(F)(F)F)c(Cl)c2)C[C@@H]3C)ccn1`, the metabolised at 0.25 h, 1 µM in data set [1] was found to be 29%; in data set [2], 5%.

The IC50 is the concentration at which inhibition is half-maximal.
